PMC10581193 (Microbiology Spectrum, 2023)
In brackets after ≈: the same amount, converted by molar mass.

Key:
Y198 (XDR) = test: microbe, parasite or virus in culture; format: cell-based, M. tuberculosis
E. faecium ATCC19434 = test: MIC against other strains, agar double dilution; conditions: Enterococcus faecium, ATCC19434, 24 h
M. tuberculosis H37Ra = test: microbe, parasite or virus in culture; format: cell-based, Mycobacterium tuberculosis
S. epidermidis ATCC12228 = test: MIC against other strains, agar double dilution; conditions: Staphylococcus epidermidis, ATCC12228, 24 h
H37Rv = test: MIC susceptibility testing against H37Rv; format: cell-based, Mycobacterium tuberculosis; conditions: for Fold increase: B18 versus TBA-7371; for MIC: Mycobacterium tuberculosis
E. coli ATCC35218 = test: MIC against other strains, agar double dilution; conditions: Escherichia coli, ATCC35218, 24 h
Y48 (MDR) = test: microbe, parasite or virus in culture; format: cell-based, M. tuberculosis
[1] = system: Enterococcus faecalis ATCC29212; test: MIC against other strains, agar double dilution; conditions: ATCC29212, 24 h
[2] = system: Escherichia coli ATCC25922; test: MIC against other strains, agar double dilution; conditions: ATCC25922, 24 h
physchem = format: physicochemical; conditions: 37 °C, water, thermodynamic from solid
Experimental: Aqueous solubility of selected compounds was determined by High Performance Liquid Chromatography (HPLC) analysis. […] The absorption intensity of different concentrations of solutions was obtained by HPLC. The linear regression equation between absorption intensity and concentration was obtained by statistical method (R ^2 >0.99). A supersaturated aqueous solution of the target compound was prepared and shaken in 37°C water bath for 24 h. The supersaturated solution was centrifuged and filtered. The absorption intensity of the supersaturated solution was obtained by HPLC. The concentration of saturated aqueous solution was obtained by linear regression equation, which was the aqueous solubility of target compound.

[3] = system: Streptococcus pneumoniae ATCC49619; test: MIC against other strains, agar double dilution; conditions: ATCC49619, 24 h
[4] = system: Klebsiella pneumoniae ATCC700603; test: MIC against other strains, agar double dilution; conditions: ATCC700603, 24 h
Y17 (MDR) = test: microbe, parasite or virus in culture; format: cell-based, M. tuberculosis
[5] = system: Pseudomonas aeruginosa ATCC27853; test: MIC against other strains, agar double dilution; conditions: ATCC27853, 24 h
S. aureus ATCC33591 = test: MIC against other strains, agar double dilution; conditions: Staphylococcus aureus, ATCC33591, 24 h
in vitro = in vitro ADME; conditions: rat, plasma, pH 7.4
Experimental: 0.1 M sodium phosphate and 0.15 M NaCl buffer (pH = 7.4 ± 0.1) were preheated. The frozen plasma was thawed at 37°C. Plasma was centrifuged at 12,000 rpm for 5 min to remove clots. Pipette and collect the supernatant as the plasma to be used in the experiment. Dialysis membrane strips were soaked in distilled water for an hour. Add 20% by volume ethanol and soak for a further 20 min. The membrane strips were then rinsed in distilled water three times before use. Five microliters of 10 mM stock solution were added into 95 µL of acetonitrile (ACN) for reference and test compounds, which was 0.5 mM solution A. Eight microliters of 10 mM stock solution were added into 192 µL of ACN for reference and test compounds, which was 0.02 mM solution B. A 96-well plate with 380 µL aliquots of plasma was preloaded in the wells designated for plasma, respectively. Twenty microliters of solution B (0.02 mM) were spiked into the pre-loaded plasma in the 96-well plate. The final concentration is 1 µM, containing 0.01% DMSO. Aliquots of 100 µL of blank dialysis buffer were applied to the receiver side of dialysis chambers. Then, aliquots of 100 µL of the plasma spiked with test and reference compounds were applied to the donor side of the dialysis chambers (always add the blank buffer to the receiver first, clearly mark the buffer and plasma chamber holes to avoid cross-contamination). […]

A549 = test: Cell viability assay (MTT), A549; format: cell-based; conditions: Homo sapiens, 48 h
Experimental: (§1) Cell viabilities were measured by 3-(4,5-dimethylthiazol-2-yl)−2,5-diphenyltetrazolium bromide (MTT) assay. Briefly, 20 µL of 5 mg/mL MTT solution was added to the culture medium and incubated at 37°C for 3 h. Then 50 µL of 20% (wt/vol) SDS was directly added to each well and incubated at 37°C overnight. The plates were shaken for 15 s and the […] reading were obtained at 570 nm wavelength. The IC50 values were calculated using the GraphPad Prism 8 software.

[6] = system: Staphylococcus aureus ATCC29213; test: MIC against other strains, agar double dilution; conditions: ATCC29213, 24 h
VERO = test: Cell viability assay (MTT), VERO; format: cell-based; conditions: Chlorocebus sabaeus, 48 h
Experimental: as §1

human PDE6C = molecular target: T1, human PDE6C (Homo sapiens, UniProt P51160); test: IMAP fluorescence polarization assay against PDE6C; format: biochemical
T1 construct: purchased BPS 60060
T1 sequence (P51160 whole entry): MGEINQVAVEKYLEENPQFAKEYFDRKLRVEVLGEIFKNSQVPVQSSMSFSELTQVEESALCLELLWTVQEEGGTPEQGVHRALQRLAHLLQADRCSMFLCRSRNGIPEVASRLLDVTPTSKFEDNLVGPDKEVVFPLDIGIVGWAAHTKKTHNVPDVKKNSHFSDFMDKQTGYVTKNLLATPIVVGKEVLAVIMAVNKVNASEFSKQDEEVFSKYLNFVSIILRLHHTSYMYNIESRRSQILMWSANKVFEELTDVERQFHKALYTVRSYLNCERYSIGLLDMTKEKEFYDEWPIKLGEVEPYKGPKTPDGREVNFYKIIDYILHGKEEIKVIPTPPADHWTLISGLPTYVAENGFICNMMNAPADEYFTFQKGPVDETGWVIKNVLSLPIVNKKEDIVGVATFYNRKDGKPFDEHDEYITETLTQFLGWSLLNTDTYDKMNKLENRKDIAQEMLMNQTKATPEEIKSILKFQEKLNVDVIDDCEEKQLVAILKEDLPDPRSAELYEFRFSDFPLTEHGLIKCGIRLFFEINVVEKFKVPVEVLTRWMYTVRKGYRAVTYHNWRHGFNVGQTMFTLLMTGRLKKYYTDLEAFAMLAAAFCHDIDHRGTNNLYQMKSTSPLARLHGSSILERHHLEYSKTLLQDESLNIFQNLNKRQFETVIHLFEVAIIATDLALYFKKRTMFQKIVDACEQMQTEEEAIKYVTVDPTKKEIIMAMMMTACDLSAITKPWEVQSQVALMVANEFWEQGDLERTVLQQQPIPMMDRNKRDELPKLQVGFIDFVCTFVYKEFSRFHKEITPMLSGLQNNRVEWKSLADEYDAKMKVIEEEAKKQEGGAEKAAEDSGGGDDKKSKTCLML
Experimental: Prepare assay buffer and stop buffer were prepared. […] Fluorescein Amidite - cyclic Guanosine Monophosphate (FAM-cGMP) was added in the 1× assay buffer for PDE6C, which was the 2× substrate solution. Two times enzyme solution was transferred to the assay plate: (i) assay plate already contained corresponding volume of compound in 100% DMSO; (ii) add 2× enzyme solution to each well of the 384-well assay plate; and (iii) incubate at room temperature for 15 min. Two times substrate solution was transferred to the assay plate. PDE reaction and termination: (i) incubate at 25°C for 40 min; (ii) add stop buffer to stop reaction, and incubate at RT for 60 min. Data were collected on Envision (Perkin Elmer). Data were fitted in Excel to obtain inhibition values using equation (1). Equation (1): Inh % = (Max − Signal)/(Max − Min) × 100. Fit the data in XL-Fit to obtain IC50 values using equation (2). Equation (2): Y = Bottom + (Top − Bottom)/[1 + (IC50/X) × HillSlope]. Y is the % inhibition and X is the compound concentration.

**Q.** What does the source list for Cc1nc(C)c(CN2CCOc3c(C(=O)NCC(F)(F)F)cc(C4CC4)cc32)nc1C [B18, 6-cyclopropyl-N-(2,2,2-trifluoroethyl)-4-((3,5,6-trimethylpyrazin-2-yl)methyl)-3,4-dihydro-2H-benzo[b][1,4]oxazine-8-carboxamide]?
**A.** MIC (Y198 (XDR); Mycobacterium tuberculosis): 5 µg/mL (≈ 11.5 µM); Fold increase (Y198 (XDR); […], B18 versus TBA-7371): 0.25; MIC (E. faecium ATCC19434): > 64 µg/mL; MBC/MIC (M. tuberculosis H37Ra): < 4; MIC against H37Ra (M. tuberculosis H37Ra): 0.18; MIC (M. tuberculosis H37Ra; Mycobacterium tuberculosis, H37RA, read-out: MIC against H37Ra): 0.18 µg/mL (≈ 0.414 µM); MIC (S. epidermidis ATCC12228): > 64 µg/mL; Fold increase (H37Rv; 3 days): 4; Fold increase (H37Rv; 7 days): 1; MIC (H37Rv; 72 h, 3 days): 0.625 µg/mL (≈ 1.44 µM); MIC (H37Rv; 168 h, 7 days): 0.625 µg/mL (≈ 1.44 µM); MIC (E. coli ATCC35218): > 64 µg/mL; MIC (Y48 (MDR); Mycobacterium tuberculosis): 0.6 µg/mL (≈ 1.38 µM); Fold increase (Y48 (MDR); […], B18 versus TBA-7371): 1; MIC [1]: > 64 µg/mL; MIC [2]: 64 µg/mL (≈ 147 µM); solubility at 24 h (physchem): 21 µg/mL (≈ 48.3 µM); MIC [3]: > 64 µg/mL; MIC [4]: 64 µg/mL (≈ 147 µM); MIC (Y17 (MDR); Mycobacterium tuberculosis): 0.6 µg/mL (≈ 1.38 µM); Fold increase (Y17 (MDR); […], B18 versus TBA-7371): 1; MIC [5]: 64 µg/mL (≈ 147 µM); MIC (S. aureus ATCC33591): > 64 µg/mL; fraction unbound at 5 h, 1 µM (in vitro): 0.042; IC50 (A549): > 40 µM; MIC [6]: > 64 µg/mL; IC50 (VERO): > 40 µM; IC50 (human PDE6C): 81 µM
